# From patent US10246442B2, “4-Aminoquinazolin compounds as prolyl hydroxylase inhibitors” (JANSSEN PHARMACEUTICA NV, priority 2011, dated 2019)
# How the values were obtained:
# [1] = system: Erythropoietin secretion, Hep-3B cells; experiment: Cellular assay: EPO secretion in Hep-3B cells; format: cell-based; conditions: Homo sapiens, Hep3B, 100 μM compound, 24 hours, percent of EPO secretion relative to assay control compound 7-[(4-Chloro-phenyl)-(5-methyl-isoxazol-3-ylamino)-methyl]-quinolin-8-ol, read-out: Cellular % EPO Stimulation
# In short: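 Compounds at 100 μM final were added to Hep-3B cells 24 h after plating and left for 24 h. Secreted EPO in supernatant measured by MSD electrochemiluminescence immunoassay. Reported as percent EPO secretion relative to an 8-hydroxyquinoline reference control compound.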
# [2] = system: HIF1-α, Hela cells; experiment: Cellular assay for HIF1-α in Hela cells; format: cell-based; conditions: Homo sapiens, 100 μM compound, 6 hours, percent of HIF stimulation relative to assay control compound 7-[(4-Chloro-phenyl)-(5-methyl-isoxazol-3-ylamino)-methyl]-quinolin-8-ol
# Method: Cellular Assay for HIF1-α
# Hela cells (ATCC, Manassas, Va.) were plated in 96-well plates at 20,000 cells per well in 100 μl of DMEM containing 10% fetal bovine serum, 1% non-essential amino acids, 50 IU/mL of penicillin and 50 μg/mL of streptomycin (all cell culture reagents from Invitrogen, Carlsbad, Calif.). 24 hours after plating, changed media to 100 ul of DMEM without 10% fetal bovine serum, 1.1 μl of the stock solution for each compound was added and incubated for 6 hours. All compounds were tested with a final compound concentration of 100 μM. The supernatant was removed and the cells were lysed in 55 μl of MSD lysis buffer containing protease inhibitors. 50 μl of the cell lysate was then transferred to a blocked MSD human HIF-1α detection plate (Meso-Scale Discovery, Gaithersburg, Md., as per manufacturers protocol), and incubated at room temperature on an orbital shaker for 2 hour. After 3 washes in PBS, 25 μl of 20 nM anti-HIF1α a detection antibody was added and incubated for 1 hour at room temperature on an orbital shaker. After 3 washes in PBS, 150 μl of 1× read buffer was added and the plate was then read on a MSD SECTOR instrument. Data was analyzed by determining the percent of HIF stimulation in the presence of 100 μM compound relative to an assay control compound, 7-[(4-Chloro-phenyl)-(5-methyl-isoxazol-3-ylamino)-methyl]-quinolin-8-ol.
# [3] = biological target: PHD2181-417 (Homo sapiens (Human), UniProt Q9GZT9); experiment: PHD enzymatic assay ([14C]-succinic acid production); format: biochemical; conditions: purified PHD2181-417, HIF-1α peptide substrate, 30 min pre-incubation; average of results
# In short: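 Recombinant human PHD2 (aa 181-417, E. coli-expressed, tags cleaved) with peptide substrate (10 μM) and [5-14C]-2-oxoglutarate in Tris pH 7.5 with catalase, DTT and ascorbate, 10 min reaction after 30 min compound pre-incubation; compounds at 100 μM final, 1% DMSO. [14C]-succinate separated by DNP precipitation and beta-counted; IC50 from three-parameter logistic fit.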
# Chain of PHD2181-417 (Q9GZT9 181-417): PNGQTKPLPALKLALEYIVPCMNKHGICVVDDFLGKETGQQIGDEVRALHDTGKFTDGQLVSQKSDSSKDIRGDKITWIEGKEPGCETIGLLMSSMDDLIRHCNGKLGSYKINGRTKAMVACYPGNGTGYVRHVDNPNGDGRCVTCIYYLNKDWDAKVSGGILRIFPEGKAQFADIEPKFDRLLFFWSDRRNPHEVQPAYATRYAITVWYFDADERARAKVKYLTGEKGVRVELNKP
Enzyme pIC50 [3],SMILES,activation at 100 µM [1] [%],activation at 100 µM [2] [%]
7.3,"O=C(O)c1cnn(-c2nc(N3CCCC3)c3ccc(Oc4ccccc4)cc3n2)c1 [Example 78, 1-(7-Phenoxy-4-(pyrrolidin-1-yl)quinazolin-2-yl)-1H-pyrazole-4-carboxylic acid]",38,64
7.0,"CCN(CC)c1nc(-n2cc(C(=O)O)cn2)nc2ccc(N3CCCCC3)cc12 [Example 88, 1-(4-(Diethylamino)-6-(piperidin-1-yl)quinazolin-2-yl)-1H-pyrazole-4-carboxylic acid]",94,122
6.4,"CN1CCCN(c2nc(-n3cc(C(=O)O)cn3)nc3ccc(-c4ccccc4)cc23)CC1 [Example 57, 1-(4-(4-Methyl-1,4-diazepan-1-yl)-6-phenylquinazolin-2-yl)-1H-pyrazole-4-carboxylic acid]",,30
6.3,"O=C(O)c1cnn(-c2nc(N3CCC(F)CC3)c3ccc(Oc4ccccc4)cc3n2)c1 [Example 91, 1-(4-(4-Fluoropiperidin-1-yl)-7-phenoxyquinazolin-2-yl)-1H-pyrazole-4-carboxylic acid]",,18
7.1,"CCCCN(CCCC)c1nc(-n2cc(C(=O)O)cn2)nc2cc(Oc3ccccc3)ccc12 [Example 92, 1-(4-(Dibutylamino)-7-phenoxyquinazolin-2-yl)-1H-pyrazole-4-carboxylic acid]",,4.1
7.1,"N#CNc1nc(-n2cc(C(=O)O)cn2)nc2ccc(-c3ccccc3)cc12 [Example 50, 1-(4-Cyanamido-6-phenylquinazolin-2-yl)-1H-pyrazole-4-carboxylic acid]",,9.6
6.7,"CC(C)(C)Nc1nc(-n2cc(C(=O)O)cn2)nc2ccc(Oc3ccccc3)cc12 [Example 72, 1-(4-(tert-Butylamino)-6-phenoxyquinazolin-2-yl)-1H-pyrazole-4-carboxylic acid]",,32
7.5,"O=C(O)c1cnn(-c2nc(N3CCCCCC3)c3cc(Oc4ccc(Cl)cc4)ccc3n2)c1 [Example 66, 1-(4-(Azepan-1-yl)-6-(4-chlorophenoxy)quinazolin-2-yl)-1H-pyrazole-4-carboxylic acid]",,14
7.3,"O=C(O)c1cnn(-c2nc(N3CCCC3)c3cc(-c4ccccc4)ccc3n2)c1 [Example 43, 1-(6-Phenyl-4-(pyrrolidin-1-yl)quinazolin-2-yl)-1H-pyrazole-4-carboxylic acid]",,57
6.6,"O=C(O)c1cnn(-c2nc(Nc3ccccc3Cl)c3cc(-c4ccccc4)ccc3n2)c1 [Example 47, 1-(4-((2-Chlorophenyl)amino)-6-phenylquinazolin-2-yl)-1H-pyrazole-4-carboxylic acid]",,10
6.8,"COCCN(C)c1nc(-n2cc(C(=O)O)cn2)nc2cc(Oc3ccccc3)ccc12 [Example 95, 1-(4-((2-Methoxyethyl)(methyl)amino)-7-phenoxyquinazolin-2-yl)-1H-pyrazole-4-carboxylic acid]",,46
6.9,"O=C(O)c1cnn(-c2nc(NCC3CCCCC3)c3cc(-c4ccccc4)ccc3n2)c1 [Example 49, 1-(4-((Cyclohexylmethyl)amino)-6-phenylquinazolin-2-yl)-1H-pyrazole-4-carboxylic acid]",,3.8
6.9,"CCN(CC)c1nc(-n2cc(C(=O)O)cn2)nc2cc(Br)ccc12 [Example 96, 1-(7-Bromo-4-(diethylamino)quinazolin-2-yl)-1H-pyrazole-4-carboxylic acid]",,72
6.2,"O=C(O)c1cnn(-c2nc(NC3CCOCC3)c3cc(-c4ccccc4)ccc3n2)c1 [Example 56, 1-(6-Phenyl-4-((tetrahydro-2H-pyran-4-yl)amino)quinazolin-2-yl)-1H-pyrazole-4-carboxylic acid]",,25
7.1,"O=C(O)c1cnn(-c2nc(Nc3ccccc3)c3cc(-c4ccccc4)ccc3n2)c1 [Example 44, 1-(6-Phenyl-4-(phenylamino)quinazolin-2-yl)-1H-pyrazole-4-carboxylic acid]",,22
6.0,"CN(C)c1nc(-n2cc(C(=O)O)cn2)nc2cc(-c3ccccc3)ccc12 [Example 80, 1-(4-(Dimethylamino)-7-phenylquinazolin-2-yl)-1H-pyrazole-4-carboxylic acid]",,7.8
6.8,"CC(C)(C)Nc1nc(-n2cc(C(=O)O)cn2)nc2ccc(C3CCCCC3)cc12 [Example 36, 1-(4-(tert-Butylamino)-6-cyclohexylquinazolin-2-yl)-1H-pyrazole-4-carboxylic acid]",,23
6.5,"O=C(O)c1cnn(-c2nc(N3CCOCC3)c3cc(-c4ccccc4)ccc3n2)c1 [Example 58, 1-(4-Morpholino-6-phenylquinazolin-2-yl)-1H-pyrazole-4-carboxylic acid]",,49
